# Measured values published in patent US9012433B2, “Substituted tetracycline compounds” (Paratek Pharmaceuticals, Inc., priority 2006, dated 2015).
# Columns and labels:
# [1] = tested on: carrageenan induced rat paw inflammation; experiment: Rat carrageenan-induced paw edema inflammatory model; assay type: in vivo; conditions: IP, various doses, FIG. 1
# Method: The model used a sub-plantar injection of carrageenan in the rat to induce an inflammatory response. The test compound or saline (control) was administered IP 30 minutes before a subplantar injection of carrageenan (1.5 mg/0.1 mL). Paw volume was measured […] before subplantar injection and again 3 hours after the injection of carrageenan using a plethysmometer. Significant differences as determined by a Kruskal-Wallis One Way ANOVA are noted between the inflammation of the untreated controls versus treated animals […]
# in vitro = assay type: cell-based
# Method in brief: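 COS-1 or CHO cells exposed to serial dilutions of test compound for 24 hours. Metabolic activity then read with resazurin (Alamar Blue): 2 hours incubation plus 30 minutes dark at room temperature, fluorescence ex 535/em 590 nm, treated versus control.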
# S. aureus RN450 [2] = experiment: In vivo anti-bacterial activity, S. aureus model; conditions: Staphylococcus aureus, sc; mice, lethal IP S. aureus RN450, single subcutaneous dose 5 mg/kg, 24 hours; read-out: Percent Survival
# Method: Groups of five mice were injected intraperitoneally with a lethal dose of S. aureus RN450 in a medium of mucin. Mice were evaluated at 24 hours to determine survival. […] In some instances, a dose response study was performed with the compound such that a PD50 (a dose of compound that protects 50% of the animals) could be calculated.
# [3] = tested on: S. pneumoniae 157E - Strep; experiment: Antibacterial MIC, CLSI broth microdilution; assay type: cell-based; conditions: Streptococcus pneumoniae, 157ESTREP; 35° C., 18-24 hours; lysed horse blood
# Method in brief: (§1)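 CLSI broth microdilution in cation-supplemented Mueller Hinton broth, inoculum 1×10^5 cfu from 0.5 McFarland cultures diluted 1:200. Incubated 35° C in ambient air for 18-24 hours. Growth read spectrophotometrically and checked manually; MIC (μg/mL) is the lowest compound dilution inhibiting growth.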
# E. coli ATCC 25922 = experiment: Antibacterial MIC, CLSI broth microdilution; assay type: cell-based; conditions: Escherichia coli, ATCC25922; 35° C., 18-24 hours
# Method in brief: as §1
# P. acnes ATCC 11827 = experiment: Antibacterial MIC, CLSI broth microdilution; assay type: cell-based; conditions: Cutibacterium acnes, ATCC11827; 35° C., 18-24 hours
# Method in brief: as §1
# E. coli MG 1655 = experiment: Antibacterial MIC, CLSI broth microdilution; assay type: cell-based; conditions: Escherichia coli, MG1655; 35° C., 18-24 hours
# Method in brief: as §1
# [4] = tested on: B. thetaiotaomicron ATCC 29741; experiment: Antibacterial MIC, CLSI broth microdilution; assay type: cell-based; conditions: Bacteroides thetaiotaomicron, ATCC29741; 35° C., 18-24 hours; read-out: MIC B. thetaiotaomicron ATCC 29741
# P. acnes ATCC 6919 = experiment: Antibacterial MIC, CLSI broth microdilution; assay type: cell-based; conditions: Cutibacterium acnes, ATCC6919; 35° C., 18-24 hours
# Method in brief: as §1
# S. aureus RN450 [5] = experiment: Antibacterial MIC, CLSI broth microdilution; assay type: cell-based; conditions: Staphylococcus aureus, RN450; 35° C., 18-24 hours
# Method in brief: as §1
compound,measurement,setting,value
CCO/N=C(/C)c1ccc(O)c2c1C[C@H]1C[C@H]3[C@H](N(C)C)C(O)=C(C(N)=O)C(=O)[C@@]3(O)C(O)=C1C2=O [A],modulation of carrageenan induced inflammation compared with doxycycline,[1],improved activity
same,IC50 at 24 h,in vitro; African green monkey,< 35 µg/mL
same,IC50 at 24 h,in vitro; Chinese hamster,< 35 µg/mL
same,responders at 5 mg/kg,S. aureus RN450 [2],100%
same,MIC,[3],< 4 µg/mL
same,MIC,E. coli ATCC 25922,< 4 µg/mL
same,MIC,P. acnes ATCC 11827,< 4 µg/mL
same,MIC,E. coli MG 1655,4 to 8 µg/mL
same,MIC,[4],> 8 µg/mL
same,MIC,P. acnes ATCC 6919,< 4 µg/mL
same,MIC,S. aureus RN450 [5],< 4 µg/mL
